What all share (type): physicochemical
A short description of data set [1]: Dynamic vapor sorption (DVS) hygroscopicity. Conditions: 25° C. As for the experimental part:
DVS measurements were performed with a SMS—DVS Intrinsic. The sample size was about 50 mg, accurately weighed. The measurement was performed at 25° C., the relative humidity (RH) range investigated was 40-90-0-90% RH with 10% RH steps. After each RH change, the mass of the sample was allowed to stabilize (waiting time 10 to 60 minutes, stabilization criterion ≤0.002 g for 10 minutes). The hygroscopicity of the sample was calculated as follows: [formula] • where: • W1: weight of sample at the start of the experiment (25° C. and 40% RH) • W2: weight of sample at 25° C. and 80% RH in the first sorption cycle High Pressure Liquid Chromatography (HPLC)

Data set [2] in a line: Exposure to moist air (RH 95%, room temperature), XRPD before/after. Conditions: 15-20 hours at 95% humidity. As for the experimental part: FIG. 4 is a series of XRPD patterns, showing NaCDC Form A before (thick line) and after (thin line) 15 hours of exposure to RH 95% at room temperature. FIG. 8 is a series of XRPD patterns, showing NaCDC Form B before (thick line) and after (thin line) 15 hours of exposure to RH 95% at room temperature.

A short description of data set [3]: Intrinsic dissolution, USP rotating disk apparatus. As for the experimental part: For the intrinsic dissolution studies, the following HPLC method was used: [table] Intrinsic dissolution profiles of NaCDC Form A and Form B were determined from a drug disk of constant surface area using a USP rotating disk apparatus in phosphate buffer (pH 7.4) at 37° C. […] A typical apparatus consisted of a punch and a die, whose base is attached to a surface plate. […] The punch was then inserted in the die cavity and the test material was compressed with a hydraulic press. A non-disintegrating compact of the material was formed in the die cavity with a single face of defined area exposed on the bottom of the die. The die assembly was then attached to a shaft with a holder and the surface plate was removed. The shaft holding the die assembly was positioned into the dissolution medium at a distance not less than 1.0 cm from the bottom of the vessel. In this procedure, fluid flow was generated by the rotation of the die. The amount of material dissolved was measured as a function of time. In particular, the cumulative amount dissolved at each time point was corrected for losses due to sampling. […] Method parameters are summarized below: [table]

Data set [4] can be described thus: Storage of screening solids at RT, XRPD after storage. As for the experimental part:
Form S2 was obtained from experiment VDS05 with EtOH after 12 days of diffusion at 50° C. […] The HPLC purity of the tested material was 92.1% at 212 nm. TG/DSC analysis of this material was consistent with that obtained from experiments SAS48, SDGR01, and SDGR07. XRPD analysis of this material is shown in FIG. 33, and the corresponding data summarized in Table S2: Form S8 was obtained in mixture with starting material ([…]) from experiment VDS12 with MEK after 12 days of diffusion at 50° C. […] The HPLC purity of the tested material was 93.7% at 212 nm. An XRPD spectrum of the material from experiment VDS12 is shown in FIG. 34A, as compared to NaCDC Form B, and the corresponding data are summarized in Table S8: The precipitate that formed in the water solution in the presence of acetone (as anti-solvent) was stored at RT for up to 3 weeks before it was subjected to thermal analysis. In this case, the majority of ASDS03 solid was dried at RT on filter paper up to 2 h and after that the recovered material was analyzed by XRPD. […] (Tonset) was observed. […] The precipitates that formed in the water solution in the presence of acetonitrile (as anti-solvent) from experiments ASDS04 and ASDS08 were stored at RT up to 24 days before being subjected to thermal analysis. In this case, the majority of solids from experiments ASDS04 and ASDS08 were dried at RT on filter paper for 1-2 h, and after that the recovered materials were analyzed by XRPD. […] The corresponding data for the initial material obtained from experiment […]) are summarized below: The precipitate that formed into the TFE solution in the presence of MTBE (as anti-solvent) was stored at RT for 22 days before being subjected to thermal analysis. In this case, the majority of the material from experiment ASDS19 was dried at RT on filter paper up to 2 h, and after that the recovered material was analyzed by XRPD. […] Considering that Form S12 was obtained as mixture with amorphous phase and with low crystallinity, there is a possibility that Form S12 is the same as Form S15. The XRPD data from experiment ASDS19 before storage for 22 days is summarized in Table S12, and the XRPD data from experiment ASDS19 after storage for 22 days is summarized in Table S15. The precipitate that formed into the TFE solution in the presence of DIPE (as anti-solvent) was stored at RT for 22 days before being subjected to thermal analysis. In this case, the majority of material obtained from experiment ASDS16 was dried at RT on filter paper up to 2 h, and after that, the recovered material was analyzed by XRPD. […] The precipitate that formed into the water solution in the presence of acetone (as anti-solvent) was stored at RT for 2 weeks before being subjected to thermal analysis. In this case, the majority of material obtained from experiment RAS11 was dried at RT on filter paper for 1-2 h, and after that the recovered material was analyzed by XRPD. […] The precipitate that formed into the TFE solution in the presence of iPrOAC (as anti-solvent) was stored at RT for 2 weeks before being subjected to thermal analysis. In this case, the majority of material from experiment RAS34 dried at RT on filter paper for 1-2 h, and after that the recovered material was analyzed by XRPD. […] The precipitate that formed into the TFE solution in the presence of EtOAc (as anti-solvent) was stored at RT for 2 weeks before being subjected to thermal analysis. In this case, the majority of material obtained from experiment RAS33 was dried at RT on filter paper for 1-2 h, and after that the recovered material was analyzed by XRPD. […] The precipitate that formed into the TFE solution in the presence of MTBE (as anti-solvent) was stored at RT for 2 weeks before being subjected to thermal analysis. In this case, the majority of the material obtained from experiment RAS36 that had been stored for 2 weeks was dried at RT on filter paper for 1-2 h, and after that the recovered material was analyzed by XRPD.

Turning to `C[C@H](CCC(=O)[O-])[C@H]1CC[C@H]2[C@@H]3[C@H](O)C[C@@H]4C[C@H](O)CC[C@]4(C)[C@H]3CC[C@]12C.[Na+]` [Form A, sodium chenodeoxycholate], the “hygroscopicity by DVS” value in data set [1] is reported as “hygroscopic”. Also, in data set [1] (40% RH to 80% RH), the “weight change in the first sorption cycle (DVS)” value is 14.1%. In data set [2], the “effect of exposure to moist air (XRPD)” value was “partial amorphization and loss of crystallinity”. Further, in data set [3] (2 tons for 2 minutes), the “solid form after compression (XRPD)” value is listed as “no change in solid form”. Further, the “IDR (intrinsic dissolution rate)” value in data set [3] (USP phosphate buffer pH 7.4, 37° C., 100 rpm, disk 0.5024 cm^2) amounted to 0.6959 mg · min^−1 · cm^−2.

As for `C[C@H](CCC(=O)[O-])[C@H]1CC[C@H]2[C@@H]3[C@H](O)C[C@@H]4C[C@H](O)CC[C@]4(C)[C@H]3CC[C@]12C.[Na+]` [Form S1, sodium chenodeoxycholate], the “XRPD form after storage” value in data set [4] (ASDS03 precipitate in water/acetone, stored at RT up to 3 weeks, dried on filter paper) is reported as “transformed into Form S14”; in data set [4] (RAS11 precipitate in water/acetone, stored at RT for 2 weeks), “high tendency of amorphization”. On to `C[C@H](CCC(=O)[O-])[C@H]1CC[C@H]2[C@@H]3[C@H](O)C[C@@H]4C[C@H](O)CC[C@]4(C)[C@H]3CC[C@]12C.[Na+]` [Form S2, sodium chenodeoxycholate], for which the form on storage entry in data set [4] (VDS05 material (EtOH vapor, 12 days, 50° C.), storage conditions at RT) is reported as “remained stable”. In the case of `C[C@H](CCC(=O)[O-])[C@H]1CC[C@H]2[C@@H]3[C@H](O)C[C@@H]4C[C@H](O)CC[C@]4(C)[C@H]3CC[C@]12C.[Na+]` [Form S3, sodium chenodeoxycholate], the “XRPD form after storage” value in data set [4] (RAS34 precipitate in TFE/iPrOAc, stored at RT for 2 weeks) is reported as “remained unchanged”. As to `C[C@H](CCC(=O)[O-])[C@H]1CC[C@H]2[C@@H]3[C@H](O)C[C@@H]4C[C@H](O)CC[C@]4(C)[C@H]3CC[C@]12C.[Na+]` [Form S6, sodium chenodeoxycholate], the “XRPD form after storage” value in data set [4] (RAS33 precipitate in TFE/EtOAc, stored at RT for 2 weeks) was “transformed into Form S1”. With `C[C@H](CCC(=O)[O-])[C@H]1CC[C@H]2[C@@H]3[C@H](O)C[C@@H]4C[C@H](O)CC[C@]4(C)[C@H]3CC[C@]12C.[Na+]` [Form S8, sodium chenodeoxycholate], the form on storage entry in data set [4] (VDS12 material (MEK vapor, 50° C.), mixture with NaCDC Form B, storage at RT) was “remained stable”. In the case of `C[C@H](CCC(=O)[O-])[C@H]1CC[C@H]2[C@@H]3[C@H](O)C[C@@H]4C[C@H](O)CC[C@]4(C)[C@H]3CC[C@]12C.[Na+]` [Form S9-a, sodium chenodeoxycholate], in data set [4] (ASDS04 precipitate in water/acetonitrile, stored at RT 22 days), the “XRPD form after storage” value is “remained unchanged”. On to `C[C@H](CCC(=O)[O-])[C@H]1CC[C@H]2[C@@H]3[C@H](O)C[C@@H]4C[C@H](O)CC[C@]4(C)[C@H]3CC[C@]12C.[Na+]` [Form S9-b, sodium chenodeoxycholate], for which the “XRPD form after storage” value in data set [4] (ASDS08 precipitate in water/acetonitrile, stored at RT 23 days) is given as “transformed into a form similar to Form S9-a”. With `C[C@H](CCC(=O)[O-])[C@H]1CC[C@H]2[C@@H]3[C@H](O)C[C@@H]4C[C@H](O)CC[C@]4(C)[C@H]3CC[C@]12C.[Na+]` [Form S12, sodium chenodeoxycholate], the “XRPD form after storage” value in data set [4] (ASDS19 precipitate in TFE/MTBE, stored at RT for 22 days) is “transformed into Form S15”.

Turning to `C[C@H](CCC(=O)[O-])[C@H]1CC[C@H]2[C@@H]3[C@H](O)C[C@@H]4C[C@H](O)CC[C@]4(C)[C@H]3CC[C@]12C.[Na+]` [Form S13, sodium chenodeoxycholate], the “XRPD form after storage” value in data set [4] (ASDS16 precipitate in TFE/DIPE, stored at RT for 22 days) is “remained unchanged”. With `C[C@H](CCC(=O)[O-])[C@H]1CC[C@H]2[C@@H]3[C@H](O)C[C@@H]4C[C@H](O)CC[C@]4(C)[C@H]3CC[C@]12C.[Na+]` [Form S15, sodium chenodeoxycholate], in data set [4] (RAS36 precipitate in TFE/MTBE, stored at RT for 2 weeks), the “XRPD form after storage” value was “transformed into Form S14”.

Values taken from patent publication US20250206773A1, “FORMS AND COMPOSITIONS OF SODIUM CHENODEOXYCHOLATE” (Syntis Bio, Inc., priority 2022, published 2025).
